Experimental data reported in ChEMBL document CHEMBL5543116, “Discovery of DNL343: A Potent, Selective, and Brain-Penetrant eIF2B Activator Designed for the Treatment of Neurodegenerative Diseases” (J Med Chem, 2024).
Converted amounts (≈) assume the structure as drawn. Blank lines part the entries; values can stand above or below the compound they belong to. The source made the active and inactive calls. The calls are words filed in the database; no cut-off is given here.

Legend:
[1] = Metabolic stability in human liver microsome assessed as hepatic clearance; type: ADME; conditions: liver microsomes
[2] = Lipophilicity, log D of the compound at pH 7.4; type: physicochemical; conditions: buffer
[3] = Kinetic solubility of compound; type: physicochemical; conditions: read-out: Kinetic_solubility
Mus musculus [4] = experiment: Neuroprotective activity against Eif 2bS R191H […] mouse model assessed as reduction in mthfd2 level in brain at 50 mg/kg, po administered for 2 days; type: functional, organism-based; conditions: time 2.0 day
[5] = target: T1, Nuclear receptor subfamily 1 group I member 3 (Homo sapiens, UniProt Q14994); experiment: Activation of CAR (unknown origin)
T1 sequence (Q14994 whole entry): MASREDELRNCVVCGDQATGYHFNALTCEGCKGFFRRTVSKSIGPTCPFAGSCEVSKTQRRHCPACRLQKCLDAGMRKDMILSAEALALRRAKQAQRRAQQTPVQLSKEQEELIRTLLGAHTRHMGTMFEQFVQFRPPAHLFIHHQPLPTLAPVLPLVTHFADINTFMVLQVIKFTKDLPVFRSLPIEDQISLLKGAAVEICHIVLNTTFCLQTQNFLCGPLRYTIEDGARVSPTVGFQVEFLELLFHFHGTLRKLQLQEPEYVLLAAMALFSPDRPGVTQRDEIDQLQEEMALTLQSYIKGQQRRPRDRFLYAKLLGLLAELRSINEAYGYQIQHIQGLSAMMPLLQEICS

Mus musculus [6] = experiment: Neuroprotective activity against Eif 2bS R191H […] mouse model assessed as reduction in Sensn2 level in brain at 50 mg/kg, po administered for 2 days; type: functional, organism-based; conditions: time 2.0 day
[7] = Oral bioavailability in rat at 3 mg/kg by LC-MS/MS analysis; type: ADME, organism-based; conditions: in vivo
[8] = Volume of distribution at steady state in dog at 0.5 mg/kg, iv; type: ADME, organism-based, Canis lupus familiaris; conditions: in vivo, read-out: Vdss
Mus musculus [9] = experiment: Neuroprotective activity against Eif 2bS R191H […] mouse model assessed as reduction in Sic7a11 level in brain at 50 mg/kg, po administered for 2 days; type: functional, organism-based; conditions: time 2.0 day
[10] = Oral bioavailability in dog at 1 mg/kg; type: ADME, organism-based, Canis lupus familiaris; conditions: in vivo
[11] = Clearance in cynomolgus monkey at 0.5 mg/kg, iv; type: ADME, organism-based, Macaca fascicularis; conditions: in vivo
Mus musculus [12] = experiment: Neuroprotective activity against Eif 2bS R191H […] mouse model assessed as reduction in Ddit3 level in brain at 50 mg/kg, po administered for 2 days; type: functional, organism-based; conditions: time 2.0 day
Mus musculus [13] = experiment: Neuroprotective activity against Eif 2bS R191H […] mouse model assessed as reduction in asns level in brain at 50 mg/kg, po administered for 2 days; type: functional, organism-based; conditions: time 2.0 day
Mus musculus [14] = experiment: Neuroprotective activity against Eif 2bS R191H […] mouse model assessed as reduction in Psat1 level in brain at 50 mg/kg, po administered for 2 days; type: functional, organism-based; conditions: time 2.0 day
Mus musculus [15] = experiment: Neuroprotective activity against Eif 2bS R191H […] mouse model assessed as reduction in trib3 level in brain at 50 mg/kg, po administered for 2 days; type: functional, organism-based; conditions: time 2.0 day
H4 = experiment: Neuroprotective activity against NaAsO2-induced human H4 cells expressing GFP TDP43 (86 to 414 residues) assessed as decrease in TDP43 accumulation incubated for 2 hrs by DAPI staining based microscopic analysis; type: functional, cell-based; conditions: H4, 2 h
[16] = Clearance in rat at 1 mg/kg, iv by LC-MS/MS analysis; type: ADME, organism-based; conditions: in vivo
Mus musculus [17] = experiment: Neuroprotective activity against Eif 2bS R191H […] mouse model assessed as reduction in Sic7a5 level in brain at 50 mg/kg, po administered for 2 days; type: functional, organism-based; conditions: time 2.0 day
Mus musculus [18] = experiment: Neuroprotective activity against Eif 2bS R191H […] mouse model assessed as reduction in Chac1 level in brain at 50 mg/kg, po administered for 2 days; type: functional, organism-based; conditions: time 2.0 day
[19] = Volume of distribution at steady state in rat at 1 mg/kg, iv; type: ADME, organism-based; conditions: in vivo, read-out: Vdss
Mus musculus [20] = experiment: Neuroprotective activity against Eif 2bS R191H […] mouse model assessed as reduction in Slc1a5 level in brain at 50 mg/kg, po administered for 2 days; type: functional, organism-based; conditions: time 2.0 day
[21] = Volume of distribution at steady state in cynomolgus monkey at 0.5 mg/kg, iv; type: ADME, organism-based, Macaca fascicularis; conditions: in vivo, read-out: Vdss
[22] = Clearance in dog at 0.5 mg/kg, iv; type: ADME, organism-based, Canis lupus familiaris; conditions: in vivo
[23] = Metabolic stability in rat liver microsome assessed as hepatic clearance; type: ADME; conditions: liver microsomes
[24] = Half life in cynomolgus monkey at 0.5 mg/kg, iv; type: ADME, organism-based, Macaca fascicularis; conditions: in vivo
[25] = Ratio of unbound drug concentration in rat brain to plasma at 3 mg/kg, po; type: ADME, organism-based
[26] = Oral bioavailability in cynomolgus monkey at 1 mg/kg; type: ADME, organism-based, Macaca fascicularis; conditions: in vivo
Mus musculus [27] = experiment: Neuroprotective activity against Eif 2bS R191H […] mouse model assessed as reduction in Eif4ebp1 level in brain at 50 mg/kg, po administered for 2 days; type: functional, organism-based; conditions: time 2.0 day
[28] = Volume of distribution at steady state in rat at 1 mg/kg, iv by LC-MS/MS analysis; type: ADME, organism-based; conditions: in vivo, read-out: Vdss
Mus musculus [29] = experiment: Neuroprotective activity against Eif 2bS R191H […] mouse model assessed as reduction in Atf4 level in brain at 50 mg/kg, po administered for 2 days; type: functional, organism-based; conditions: time 2.0 day
Mus musculus [30] = experiment: Neuroprotective activity against Eif 2bS R191H […] mouse model assessed as reduction in Atf3 level in brain at 50 mg/kg, po administered for 2 days; type: functional, organism-based; conditions: time 2.0 day
Mus musculus [31] = experiment: Neuroprotective activity against Eif 2bS R191H […] mouse model assessed as reduction in ppp1r15a level in brain at 50 mg/kg, po administered for 2 days; type: functional, organism-based; conditions: time 2.0 day
[32] = Metabolic stability in rat liver microsome assessed as clearance; type: ADME; conditions: liver microsomes
[33] = Ratio of unbound drug concentration in cynomolgus monkey brain to plasma at 0.5 mg/kg, po measured after 6 hrs; type: ADME, organism-based, Macaca fascicularis
[34] = Half life in rat at 1 mg/kg, iv by LC-MS/MS analysis; type: ADME, organism-based; conditions: in vivo
[35] = Half life in dog at 0.5 mg/kg, iv; type: ADME, organism-based, Canis lupus familiaris; conditions: in vivo
[36] = target: Voltage-gated inwardly rectifying potassium channel KCNH2 (Homo sapiens, UniProt Q12809); experiment: Inhibition of hERG manual patch clamp assay; type: toxicity
Sequence of Voltage-gated inwardly rectifying potassium channel KCNH2 (Q12809 whole entry): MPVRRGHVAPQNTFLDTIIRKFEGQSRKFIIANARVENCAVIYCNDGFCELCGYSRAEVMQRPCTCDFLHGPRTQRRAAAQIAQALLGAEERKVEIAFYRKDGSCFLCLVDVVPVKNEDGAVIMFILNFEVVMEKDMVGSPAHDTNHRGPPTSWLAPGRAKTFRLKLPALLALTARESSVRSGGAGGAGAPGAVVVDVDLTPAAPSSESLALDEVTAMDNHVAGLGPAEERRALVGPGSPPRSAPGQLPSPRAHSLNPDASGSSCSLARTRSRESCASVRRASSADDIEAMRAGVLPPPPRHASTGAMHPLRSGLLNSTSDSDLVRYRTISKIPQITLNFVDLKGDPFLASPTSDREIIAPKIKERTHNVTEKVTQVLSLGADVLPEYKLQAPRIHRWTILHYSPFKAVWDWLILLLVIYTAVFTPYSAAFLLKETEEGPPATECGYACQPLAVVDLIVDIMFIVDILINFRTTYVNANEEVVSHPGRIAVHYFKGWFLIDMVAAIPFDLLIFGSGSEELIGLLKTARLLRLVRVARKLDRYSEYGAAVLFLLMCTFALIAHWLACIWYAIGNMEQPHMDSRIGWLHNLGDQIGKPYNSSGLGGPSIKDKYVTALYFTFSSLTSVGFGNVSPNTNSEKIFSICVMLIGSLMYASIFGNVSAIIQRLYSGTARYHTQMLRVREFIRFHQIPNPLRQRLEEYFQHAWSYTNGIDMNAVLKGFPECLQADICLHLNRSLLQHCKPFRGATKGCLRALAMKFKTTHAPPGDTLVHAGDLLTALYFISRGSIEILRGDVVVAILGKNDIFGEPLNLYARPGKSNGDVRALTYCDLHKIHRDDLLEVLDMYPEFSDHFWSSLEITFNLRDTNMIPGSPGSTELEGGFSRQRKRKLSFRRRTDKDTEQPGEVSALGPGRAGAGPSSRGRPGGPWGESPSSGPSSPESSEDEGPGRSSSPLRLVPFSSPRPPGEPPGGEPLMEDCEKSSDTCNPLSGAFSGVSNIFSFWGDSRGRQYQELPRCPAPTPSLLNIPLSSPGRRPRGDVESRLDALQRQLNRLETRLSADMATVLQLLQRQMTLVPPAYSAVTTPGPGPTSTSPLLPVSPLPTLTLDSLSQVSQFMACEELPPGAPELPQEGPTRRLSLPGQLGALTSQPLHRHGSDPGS

[37] = target: T2, Nuclear receptor subfamily 1 group I member 2 (Homo sapiens, UniProt O75469); experiment: Activation of PXR (unknown origin)
T2 sequence (O75469 whole entry): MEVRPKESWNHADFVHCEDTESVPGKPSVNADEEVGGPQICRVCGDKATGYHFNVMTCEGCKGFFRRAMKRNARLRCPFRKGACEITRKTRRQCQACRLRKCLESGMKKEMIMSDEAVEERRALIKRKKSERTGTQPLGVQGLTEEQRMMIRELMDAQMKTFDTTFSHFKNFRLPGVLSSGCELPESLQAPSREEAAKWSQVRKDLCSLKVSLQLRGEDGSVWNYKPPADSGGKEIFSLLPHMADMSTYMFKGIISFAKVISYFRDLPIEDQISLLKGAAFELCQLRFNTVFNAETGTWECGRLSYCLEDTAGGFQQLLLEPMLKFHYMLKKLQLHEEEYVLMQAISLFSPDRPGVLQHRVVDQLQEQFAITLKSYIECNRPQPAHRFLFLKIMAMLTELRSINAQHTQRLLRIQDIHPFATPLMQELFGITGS

[38] = target: T3, Aryl hydrocarbon receptor (Homo sapiens, UniProt P35869); experiment: Activation of AHR (unknown origin)
T3 sequence (P35869 whole entry): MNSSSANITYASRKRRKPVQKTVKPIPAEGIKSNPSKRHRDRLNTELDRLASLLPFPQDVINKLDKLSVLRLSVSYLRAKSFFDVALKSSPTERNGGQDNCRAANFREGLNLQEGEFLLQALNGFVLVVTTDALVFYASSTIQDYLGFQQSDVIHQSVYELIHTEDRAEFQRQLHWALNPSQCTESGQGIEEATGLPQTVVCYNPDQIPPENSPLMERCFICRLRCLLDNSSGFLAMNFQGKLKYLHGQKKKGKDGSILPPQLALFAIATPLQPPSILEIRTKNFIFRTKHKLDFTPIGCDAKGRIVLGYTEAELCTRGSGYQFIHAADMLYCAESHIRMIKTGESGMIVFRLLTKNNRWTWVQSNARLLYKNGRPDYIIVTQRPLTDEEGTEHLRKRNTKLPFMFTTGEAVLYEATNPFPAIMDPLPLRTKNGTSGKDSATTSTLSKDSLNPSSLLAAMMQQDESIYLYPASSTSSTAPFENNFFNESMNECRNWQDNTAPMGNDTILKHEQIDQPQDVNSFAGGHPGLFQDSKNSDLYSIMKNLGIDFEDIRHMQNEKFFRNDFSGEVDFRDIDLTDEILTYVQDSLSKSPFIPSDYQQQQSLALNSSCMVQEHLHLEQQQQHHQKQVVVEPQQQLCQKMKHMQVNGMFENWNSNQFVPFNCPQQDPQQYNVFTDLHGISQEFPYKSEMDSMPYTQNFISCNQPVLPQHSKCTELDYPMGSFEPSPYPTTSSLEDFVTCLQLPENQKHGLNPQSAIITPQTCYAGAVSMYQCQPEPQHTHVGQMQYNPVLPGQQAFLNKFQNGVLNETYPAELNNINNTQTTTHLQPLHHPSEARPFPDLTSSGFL

[39] = Clearance in rat at 1 mg/kg, iv; type: ADME, organism-based; conditions: in vivo
[40] = Oral bioavailability in rat at 3 mg/kg; type: ADME, organism-based; conditions: in vivo
[41] = Half life in rat at 1 mg/kg, iv; type: ADME, organism-based; conditions: in vivo

CLhep predicted [1]: 13 mL/min/kg
logD [2]: 3.6
Compound: O=C(COc1ccc(Cl)c(F)c1)NC12CC(NC(=O)CO[C@H]3C[C@H](C(F)(F)F)C3)(C1)C2

solubility kinetic [3]: 5 µM (≈ 2.19 µg/mL)
logD [2]: 3.3
Compound: O=C(COc1ccc(Cl)cc1)NC1CCN(C(=O)COc2ccc(Cl)cc2)CC1

solubility kinetic [3]: < 1 µM
logD [2]: 4.5
Compound: O=C(COc1ccc(Cl)cc1)NC12CCC(NC(=O)COc3ccc(Cl)cc3)(CC1)CC2

solubility kinetic [3]: 34 µM (≈ 13.4 µg/mL)
logD [2]: 3.4
Compound: O=C(COc1ccc(Cl)cc1)NC12CC(NC(=O)COC3CCCC3)(C1)C2

solubility kinetic [3]: 194 µM (≈ 76.6 µg/mL)
logD [2]: 1.8
Compound: O=C(COc1ccc(Cl)cc1)NC12CC(NC(=O)COC3CCOC3)(C1)C2 (stereo not drawn)

solubility kinetic [3]: 2 µM (≈ 0.871 µg/mL)
logD [2]: 2.9
Compound: O=C(COc1ccc(Cl)cc1)NC12CC(NC(=O)COc3ccc(Cl)cc3)(C1)C2

solubility kinetic [3]: 19 µM (≈ 7.46 µg/mL)
logD [2]: 3.6
Compound: O=C(COCC1CCC1)NC12CC(NC(=O)COc3ccc(Cl)cc3)(C1)C2

Continued, compound first:

Compound: O=C(COc1ccc(Cl)c(F)c1)NC12CC(c3cnn([C@H]4C[C@@H](OC(F)(F)F)C4)n3)(C1)C2
CLhep predicted [1]: < 6 mL/min/kg

Compound: OC(COC1CCC(Cl)C(F)C1)NC12CC(NC(O)CO[C@H]3C[C@@H](C(F)(F)F)C3)(C1)C2 (stereo partly drawn)
CLhep predicted [1]: 13 mL/min/kg
logD [2]: 3.1

Compound: O=C(COc1ccc(F)cc1)NC12CC(c3nnc([C@H]4C[C@@H](OC(F)(F)F)C4)o3)(C1)C2
CLhep predicted [1]: < 6 mL/min/kg

Compound: O=C(COc1ccc(Cl)cc1)NC12CC(c3nnc([C@H]4C[C@@H](OC(F)(F)F)C4)o3)(C1)C2 [EVETIFATOR]
Activity (Mus musculus [4]): Active
Activity [5]: Not Active
Activity (Mus musculus [6]): Active
bioavailability [7]: 65%
Vd [8]: 2.7 L/kg
Activity (Mus musculus [9]): Active
bioavailability [10]: > 99%
clearance [11]: 2.9 mL/min/kg
Activity (Mus musculus [12]): Active
Activity (Mus musculus [13]): Active
Activity (Mus musculus [14]): Active
Activity (Mus musculus [15]): Active
IC50 (H4): 12.5 nM
clearance [16]: 0.4 mL/min/kg
Activity (Mus musculus [17]): Active
Activity (Mus musculus [18]): Active
Vd [19]: 0.31 L/kg
Activity (Mus musculus [20]): Active
Vd [21]: 1.9 L/kg
clearance [22]: 4.8 mL/min/kg
CLhep predicted [23]: < 17 mL/min/kg
half-life [24]: 7.6 h
K(p,uu,brain) [25]: 0.8
bioavailability [26]: > 99%
Activity (Mus musculus [27]): Active
Vd [28]: 0.31 L/kg
Activity (Mus musculus [29]): Active
Activity (Mus musculus [30]): Active
Activity (Mus musculus [31]): Active
CLhep predicted [32]: < 17 mL/min/kg
K(p,uu,brain) [33]: 0.9
half-life [34]: 12.5 h
half-life [35]: 7.4 h
IC50 [36]: 3000 nM
Activity [37]: Not Active
Activity [38]: Not Active
clearance [39]: 0.4 mL/min/kg
bioavailability [40]: 56%
CLhep predicted [1]: < 6 mL/min/kg
half-life [41]: 12.5 h
